Results: paper PMC12048343, “Discovery of a small molecule secreted clusterin enhancer that improves memory in Alzheimer’s disease mice” (npj Drug Discovery, 2025)
Values after ≈ are worked out from the molar mass of the structure shown. “Also recorded” adds a separate entry of the source. Like-named read-outs stand apart in the source and are kept apart here.

Columns and labels:
[1] = tested on: sCLU secreted from human U-87 MG glioblastoma cells; assay: Human sCLU AlphaLISA on supernatant of U-87 MG cells (HTS, re-test, dose response); type: cell-based; details: for sCLU levels relative to DMSO control: 5 µM
Experimental: Cell culture supernatant (2 μL) was added to a 384-well proxy plate preloaded with AlphaLISA HiBlock buffer (2 µL, 1X, CAT#AL004C, Perkin Elmer). Then an anti-sCLU antibody mixture (2 µL, mAb J84, biotinylated (10 nM, Cat# 3717-6-1000, Mabtech) and mAb CLU aa 22-227 (Cat#AF7084, R&D Systems), Acceptor bead conjugated (50 µg/mL, Cat#6772001, Perkin Elmer)) was added and incubated at room temperature for 1 hour. AlphaScreen Streptavidin Donor beads (2 µL, Cat#6760002S, Perkin Elmer) were added, incubated for an additional 30 min in the dark, and the plate was read in an Envision plate reader.
Human glioblastoma U-87 MG cells were proliferated in EMEM with 10% FBS and 1% P/S (complete medium) in 10 cm dishes until approximately 90% confluent. Following trypsinization, a suspension of 2 × 10^5 cells/mL (25 µL) were added to 384-well plates containing complete medium (25 µL) and library compounds from 9 plates (5 µM). After incubation for 30 h at 37 °C and 5% CO2, 2 μL of cell culture supernatant were analyzed via human sCLU AlphaLISA as described above. Cell culture medium and cells were added to the 384-well plates using the MultiDrop. The BioMek FX was used to pin the drugs and transfer the cell culture supernatant. The MANTIS liquid handler was used to added human sCLU AlphaLISA reagents.
Human glioblastoma U-87 MG cells were proliferated in EMEM with 10% FBS and 1% P/S (complete medium) in 10 cm dishes until approximately 90% confluent. […] After incubation for 30 hours at 37 °C and 5% CO2, 2 μL of cell culture supernatant were analyzed via human sCLU AlphaLISA as described above.

BRD2 = BRD2 (Homo sapiens, UniProt P25440); assay: BRD2 inhibition assay; type: biochemical
BRD2, sequence (P25440 whole entry): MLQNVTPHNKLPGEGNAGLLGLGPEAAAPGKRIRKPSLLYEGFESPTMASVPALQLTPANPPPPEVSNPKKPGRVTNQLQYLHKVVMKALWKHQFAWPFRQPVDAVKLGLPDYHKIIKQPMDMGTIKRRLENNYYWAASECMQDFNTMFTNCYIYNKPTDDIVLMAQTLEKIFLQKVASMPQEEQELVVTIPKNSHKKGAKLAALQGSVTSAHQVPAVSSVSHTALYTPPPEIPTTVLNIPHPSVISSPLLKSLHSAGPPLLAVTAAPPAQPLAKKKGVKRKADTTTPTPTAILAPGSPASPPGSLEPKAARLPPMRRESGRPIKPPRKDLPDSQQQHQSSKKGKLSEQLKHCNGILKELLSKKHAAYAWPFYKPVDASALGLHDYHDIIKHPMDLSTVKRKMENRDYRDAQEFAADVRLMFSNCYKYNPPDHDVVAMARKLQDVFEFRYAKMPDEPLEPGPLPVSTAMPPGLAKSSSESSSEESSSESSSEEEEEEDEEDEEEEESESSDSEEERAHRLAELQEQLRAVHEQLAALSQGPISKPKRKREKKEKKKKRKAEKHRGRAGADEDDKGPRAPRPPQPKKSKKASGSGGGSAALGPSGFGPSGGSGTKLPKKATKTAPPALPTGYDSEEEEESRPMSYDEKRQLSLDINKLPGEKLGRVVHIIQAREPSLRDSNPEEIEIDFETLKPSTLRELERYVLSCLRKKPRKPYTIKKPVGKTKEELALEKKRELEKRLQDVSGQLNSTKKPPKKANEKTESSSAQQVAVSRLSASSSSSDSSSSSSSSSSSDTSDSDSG

BRD4 = BRD4 (Homo sapiens, UniProt O60885); assay: BRD4 inhibition assay; type: biochemical
Kinetic solubility = type: physicochemical; details: aqueous buffer, kinetic from dmso stock, PBS pH 7.4, 37 °C, 100 µM nominal
Experimental: Test compound (10 mM, 100% DMSO) was diluted separately into aqueous buffer (100 µM; PBS pH 7.4) and DMSO at various concentrations (1000, 100, 10, 1, 0.1 µM). The solutions were then incubated at 37 °C for 90 min and centrifuged (16000xg, 5 min). An aliquot of each supernatant was analyzed by UV/Vis (if possible) or LC-MS/MS. A standard curve was made by plotting the known amount of analyte per standard in DMSO vs. absorbance or chromatographic peak area. Kinetic solubility (mM) was calculated using the trendline equation with maximum absorbance or chromatographic peak area observed in the aqueous sample.

[2] = Liver microsome stability assay; type: in vitro ADME; details: pH 7.4; human liver microsomes 0.5 mg/mL, NADPH, 37 °C, up to 120 min; read-out: Microsomal Stability t1/2
Experimental: An aliquot (1 µL) of test compound (1 mM, 100% DMSO) was added to an aqueous liver microsome solution (1000 µL, PBS pH 7.4, 0.5 mg/mL human liver microsomes (Thermo Fisher Scientific, Cat#HMMPL), 2 mM NADPH, 2 mM MgCl2) and incubated at 37 °C for 120 min. Aliquots (50 µL) of the microsome solution were taken at various time points (0, 5, 10, 15, 30, 60, 90, 120 min) and added to a reaction quenching solution (200 µL 100% Acetonitrile) containing an internal standard. Solutions were clarified by centrifugation (16,000 x g, 5 min), and the supernatants were transferred to new tubes and lyophilized. Samples were reconstituted in 100 µL of 50/50/0.1 (Water/Acetonitrile/Formic Acid) prior to analysis via liquid chromatography-tandem mass spectrometry (LC-MS/MS). Chromatographic peak areas normalized to the internal standard were plotted at each time point and the half-life (t1/2) of compound in liver microsomes was determined by using the trendline equation to calculate the time at which compound abundance was 50% of that at time point 0 (t0).

[3] = Plasma binding assay (dialysis); type: in vitro ADME; details: dialysis 4.5 hours, 37 °C
Experimental: (§1) Brain tissue was homogenized in PBS (pH 7.4) (1: 3 weight(mg)/volume(µL)) and the protein concentration was determined using the Micro BCA™ Protein Assay Kit (Thermo Fisher Scientific, Cat#23235). Brain homogenate was clarified and diluted to 20 mg/mL in PBS (pH 7.4). Either brain homogenate or plasma was and added to Slide-A-Lyzer™ MINI Dialysis Devices, 10 K MWCO dialysis cups (Thermo Fisher Scientific, Cat#PI88401) in a 48-well plate containing PBS (500 µL; pH 7.4). 1 µL of 1 mM compound was added to the brain homogenate (Final Concentration: 2 µM compound, 0.5% DMSO) and incubated on a rocker for 4.5 hours at 37 °C. 50 µL of brain homogenate or plasma (within the dialysis cup) and PBS (within the 48-well plate) were transferred to new microcentrifuge tubes containing 400 µL of quenching reagent (100% Acetonitrile) containing internal standard. Solutions were clarified by centrifugation (16,000 x g, 5 min), and the supernatants were transferred to new tubes and lyophilized. Samples were reconstituted in 100 µL of 50/50/0.1 (Water/Acetonitrile/Formic Acid) prior to analysis via liquid chromatography-tandem mass spectrometry (LC-MS/MS). The % of the unbound drug (fu,bound) was calculated using the following equation:
(§2) % Bound = [1− (PBS chromatographic peak area/ brain homogenate or plasma chromatographic peak area)] x 100

[4] = Brain tissue binding assay (dialysis); type: in vitro ADME; details: brain homogenate 20 mg/mL, 2 µM compound, dialysis 4.5 hours, 37 °C
Experimental: as §1, §2

[5] = Blood-Brain Barrier (BBB) permeability assay (IAM column, Pm); type: in vitro ADME; details: pH 7.4; Pm > 1.0 = CNS+
Experimental: A liquid chromatography-ultraviolet/visible spectroscopy (LC-UV/Vis) assay was performed on a 1290 Infinity HPLC system (Agilent Technologies) with an HPLC column containing immobilized phosphatidylcholine (IAM.PC.DD, Regis Technologies, Cat#774011, 5 µm 300 Å 100 ×4.6 mm). The HPLC method was a mixture of 6.7 mM phosphate buffer saline (pH 7.4; solvent A) and acetonitrile (solvent B), and a gradient was used for the elution of the compounds (min/%B: 0/20, 20/60, 21/20, 30/20). The retention time of the compound (tr) and void volume time of the column (t0) were recorded. Blood-brain barrier (BBB) permeability (Pm) was calculated using the following equations as described by Yoon et al. (10.1177/1087057105281656):
KIAM = (tr − t0) / t0; Pm = (KIAM / MW^4) x 10^10
Compounds with a Pm > 1.0 were determined to be BBB permeable (CNS + ) at pH 7.

[6] = tested on: nCLU levels in U-87 MG cells; assay: nCLU levels in U-87 MG cells; type: cell-based, human; details: 5 µM
U-87 MG cells = assay: Cytotoxicity, MultiTox-Fluor (CNS gliotoxicity); details: U-87 MG cells, dose response (Fig. 2F)
Source text: Cell viability and toxicity were simultaneously assessed using the MultiTox-Fluor Multiplex Cytotoxicity Assay (Cat# PRG9200, Fisher Scientific) according to the manufacturer’s protocol.

[7] = selective HDAC / BET inhibitors, dose response (Fig. S1), read-out: sCLU EC50
[8] = Homo sapiens, U-87 MG cells, 30 h, AlphaLISA of supernatant, read-out: EC50 for sCLU increase
[9] = Homo sapiens, U-87 MG cells, dose response, text and figures, read-out: sCLU EC50

Row | Structure (SMILES) | EC50 [1, 8] | solubility kinetic at 90 min (Kinetic solubility) | half-life at 1 µM [2] | Plasma Binding [3] | Brain Tissue Binding [4] | PAMPA Pm [5] | also measured
1 | CCNC(=O)c1cc2c(-c3cc(C(C)(C)O)ccc3Oc3c(C)cc(F)cc3C)cn(C)c(=O)c2[nH]1 [ABBV-774] |  |  |  |  |  |  | potency as sCLU enhancer, comparison in words ([1]; U-87 MG cells, dose response): less potent sCLU enhancers than pan-BET inhibitors; EC50 [1, 7]: 1100 nM
2 | Cc1sc2c(c1C)C(c1ccc(Cl)cc1)=N[C@@H](CC(=O)OC1CCCC1)c1nnc(C)n1-2 [DDL-351] | 117 nM | 57.5 µM (≈ 27 µg/mL) | 3 min | 99 % bound | 94 % bound | 1.35 | IC50 (BRD2): 175 nM; IC50 (BRD4): 27 nM
3 | O=C(CCCCCCC(=O)Nc1ccccc1)NO [vorinostat] |  |  |  |  |  |  | nCLU levels [6]: not affecting nCLU levels
4 | O=C(/C=C/c1cccc(S(=O)(=O)Nc2ccccc2)c1)NO [belinostat] |  |  |  |  |  |  | EC50 [1, 9]: 1120 nM; sCLU levels relative to DMSO control ([1]; U-87 MG cells): increased sCLU; nCLU levels [6]: not affecting nCLU levels; cytotoxicity, comparison in words (U-87 MG cells): significant differences between belinostat and the BET inhibitors at the highest concentrations tested
5 | Cc1sc2c(c1C)C(c1ccc(Cl)cc1)=N[C@@H](CC(=O)NO)c1nnc(C)n1-2 [DDL-360] | 631 nM | > 100 µM | > 120 min | 88 % bound | 59 % bound | 1.09 | IC50 (BRD2; read-out: BRD2 IC50): 395 nM; IC50 (BRD4; read-out: BRD4 IC50): 70 nM
6 | Cc1sc2c(c1C)C(c1ccc(Cl)cc1)=N[C@@H](CC(=O)N1CCCC1)c1nnc(C)n1-2 [DDL-352] | 1440 nM | > 100 µM | 62 min | 96 % bound | 64 % bound | 0.98 | IC50 (BRD2; read-out: BRD2 IC50): 644 nM; IC50 (BRD4; read-out: BRD4 IC50): 105 nM
7 | CCCc1nn(C)c2c(=O)[nH]c(-c3cc(Cc4ccc(C(=O)Nc5ccccc5N)cc4)ccc3OCC)nc12 [CM-675] |  |  |  |  |  |  | EC50 [1, 7]: 6000 nM
8 | Cc1cc(/N=N/c2ccc(S(=O)(=O)Nc3ccccn3)cc2)c(N)cc1O [MS436] |  |  |  |  |  |  | potency as sCLU enhancer, comparison in words ([1]; U-87 MG cells, dose response): less potent sCLU enhancers than pan-BET inhibitors
9 | COc1cc2c(cc1-c1c(C)noc1C)ncc1[nH]c(=O)n(C(C)c3ccccn3)c12 (centres unmarked) [I-BET151] |  |  |  |  |  |  | EC50 [1, 9]: 617 nM; sCLU levels relative to DMSO control ([1]; U-87 MG cells): increased sCLU; also recorded: significantly increase sCLU levels; nCLU levels [6]: not affecting nCLU levels
10 | COc1cc(/C=C/C(=O)N2CCC=CC2=O)cc(OC)c1OC [piperlongumine] |  |  |  |  |  |  | sCLU levels relative to DMSO control ([1]; U-87 MG cells): significantly increase sCLU levels
11 | Cc1sc2c(c1C)C(c1ccc(Cl)cc1)=N[C@@H](CC(=O)OC(C)(C)C)c1nnc(C)n1-2 [(+)-JQ1, reference compound] | 313 nM | 86.5 µM (≈ 39.5 µg/mL) | 27 min | 85 % bound | 87 % bound | 1.44 | nCLU levels [6]: not affecting nCLU levels
12 | Cc1sc2c(c1C)C(c1ccc(Cl)cc1)=N[C@@H](CC(=O)OC1CCC1)c1nnc(C)n1-2 [DDL-355] | 99 nM | 63.7 µM (≈ 29 µg/mL) | 27 min | 86 % bound | 88 % bound | 1.42 | IC50 (BRD2): 163 nM; IC50 (BRD4): 19 nM
13 | CCCCOC(=O)C[C@@H]1N=C(c2ccc(Cl)cc2)c2c(sc(C)c2C)-n2c(C)nnc21 [DDL-358] | 446 nM | 59.3 µM (≈ 27.1 µg/mL) | 14 min | 98 % bound | 93 % bound | 1.42 | IC50 (BRD2): 207 nM; IC50 (BRD4): 28 nM
14 | Cc1sc2c(c1C)C(c1ccc(Cl)cc1)=N[C@@H](CC(=O)NCC(=O)OC(C)C)c1nnc(C)n1-2 [DDL-354] | 676 nM | 91.1 µM (≈ 45.6 µg/mL) | 12 min | 91 % bound | 67 % bound | 0.76 | IC50 (BRD2; read-out: BRD2 IC50): 382 nM; IC50 (BRD4; read-out: BRD4 IC50): 48 nM
15 | Cc1sc2c(c1C)C(c1ccc(Cl)cc1)=NC(CC(=O)NC(C)C(=O)OC(C)C)c1nnc(C)n1-2 (centres unmarked) [DDL-359] | 2340 nM | > 100 µM | 13 min | 94 % bound | 44 % bound | 0.71 | IC50 (BRD2; read-out: BRD2 IC50): 130 nM; IC50 (BRD4; read-out: BRD4 IC50): 353 nM
16 | O=C(NO)c1ccc(CNc2cccc3cccnc23)cc1 [MPT0G211] |  |  |  |  |  |  | EC50 [1, 7]: 10000 nM
17 | Cc1sc2c(c1C)C(c1ccc(Cl)cc1)=N[C@@H](CC(=O)NC1CCCC1)c1nnc(C)n1-2 [DDL-353] | 977 nM | > 100 µM | 8 min | 93 % bound | 79 % bound | 1.08 | IC50 (BRD2; read-out: BRD2 IC50): 385 nM; IC50 (BRD4; read-out: BRD4 IC50): 63 nM
18 | Nc1cc(F)ccc1NC(=O)/C=C/c1cnn(C/C=C/c2ccccc2)c1 [RGFP966] |  |  |  |  |  |  | EC50 ([1]; Homo sapiens, U-87 MG, selective HDAC / BET inhibitors, dose response 2-5000 nM (Fig. S1), read-out: sCLU EC50): 10100 nM
